Bridges are numbered along the chain shown (N, C = ends). Where no end group is shown, it is not given here.
Key:
[1] = system: human alkaline phosphatase (hALP) and human type I collagen (hCollagen I); test: RT-PCR analysis of hALP and hCollagen I in human mesenchymal stem cells; assay type: cell-based
Description: Human mesenchymal stem cells (3×10^4 cells) were seeded on a 6-well plate, followed by culture for 7 days in the presence of an osteoblast differentiation medium (Lonza) or a maintenance medium (Lonza). Peptide D (100 μM and 300 μM) was added to each well. Further, a peptide solvent was added to a control group. After culture, the cells were washed with PBS and dissolved in QIAzol Lysis Reagent (QIAGEN) (0.75 mL). Then, the solution was collected. The solution was left at room temperature for 5 minutes. Then, chloroform (Wako) (0.15 mL) was added, the resultant was admixed by turning upside down, and then the resultant was centrifuged under conditions of 4° C. and 12000×g for 15 minutes. The supernatant was collected in a new tube. RNA was isolated from the supernatant with the use of an EZ1 RNA universal tissue kit (QIAGEN) and Magtration System 12GC (QIAGEN). After determination of the RNA concentration, each RNA (250 ng) was subjected to electrophoresis with 1% agarose gel for confirmation of the occurrence or nonoccurrence of RNA degradation. Non-degraded RNAs (500 ng each) were subjected to RT-PCR. RT-PCR was performed using a ThermoScript RT-PCR System (Invitrogen) and random primers. […]
Samples obtained after the PCR reaction were subjected to electrophoresis with 1% agarose gel. […] The obtained images were analyzed with a CSAnalyzer. […]

[2] = system: RAW264 cells; test: TRAP activity in RAW264 cells with GST-RANKL; assay type: cell-based
Description: Peptide E (SEQ ID NO: 16) was prepared from peptide D with the substitution of a single amino acid. TRAP activity and ALP activity were determined to compare peptide D and peptide E in terms of effects of causing osteoclast differentiation and osteoblast differentiation. RAW264 cells mixed with 10% FBS+αMEM (SIGMA) were seeded on a 96-well plate (2×10^3 cells/well). After confirmation of cell adhesion, the medium was replaced with 10% FBS+αMEM containing 10 nM GST-RANKL (Oriental Yeast Co., Ltd.). Peptide D and peptide E were separately added thereto at concentrations of 25, 50, 100, and 200 μM, followed by culture for 4 days. After the termination of culture, 100 μL acetone/ethanol was added to each well for cell fixation, followed by drying in a draft for 30 min.
In order to obtain a TRAP solution buffer at a concentration of 1.5 mg/mL, a solution was prepared by adjusting p-nitrophenyl phosphate (Nacalai) with 50 mM citric acid buffer and adding a 0.2 M sodium tartrate solution in a volume 1/10 that of citric acid buffer. The obtained TRAP solution buffer was added to each well in an amount of 100 μL followed by incubation at 37° C. for 45 min. Then, a 1N NaOH solution (50 μL) was added thereto to terminate the reaction. The OD value at 405 nm was determined for each well with a microplate reader (BMG Labtech) in the same manner as in Example 1.
RAW264 cells mixed with 10% FBS+αMEM (SIGMA) were seeded on a 96-well plate (2×10^3 cells/well). After cell adhesion had taken place, the medium was replaced with 10% FBS+αMEM containing 5 nM GST-RANKL (Oriental Yeast Co., Ltd.). Peptide D in the form of TFA, peptide D in the form of acetate, and peptide D in the form of hydrochloride with concentrations of 25 and 100 μM were separately added thereto, followed by culture for 4 days. After the completion of culture, acetone/ethanol (100 μL) was added to each well for cell fixation, followed by drying in a draft for 30 min. TRAP activity determination was carried out by the method described in Example 16. […] Peptide D in the form of hydrochloride was confirmed to have neither osteoblast differentiation activity nor osteoclastgenesis inhibition activity. However, peptide D in the form of acetate was confirmed to have higher osteoblast differentiation activity and lower osteoclastgenesis inhibition activity compared with peptide D in the form of TFA. […] It is also possible to produce modified peptide D having osteoblast differentiation activity alone or modified peptide D having osteoclastgenesis inhibition activity alone.

## peptide D: cyclic peptide of SEQ ID NO: 7, 9 amino acids, two cysteine residues bound via a disulfide bond; binds to RANKL (YCWSQYLCY; disulfide 2-8 (inferred))
[1]; 100 μM and 300 μM, 7-day differentiation
  expression levels of alkaline phosphatase and type I collagen: increased in a peptide-concentration-dependent manner
[1]; 300 μM, maintenance medium
  mRNA expression levels of alkaline phosphatase and type I collagen: caused increases in the mRNA expression levels
[2]; 25, 50, 100 and 200 μM, 10 nM GST-RANKL, 4 days
  TRAP activity: inhibit TRAP activity
[2]; 100 and 200 μM
  TRAP activity, peptide D compared with peptide E: significant inhibition actions compared with peptide E
